Values quoted from earlier work as cited in patent US10835585B2, “Shared neoantigens” (priority 2015, dated 2020).

Key:
[1] = test system: serum prostate specific antigen (PSA); details: advanced hormone refractory prostate cancer; personalized vaccination combined with a low dose of estramustine
[2] = test system: ovarian carcinoma patients
healthy human volunteers = details: 8 healthy volunteers, one single s.c. administration, versus 4 placebo subjects; whole blood
[3] = more than 25 clinical trials

Row | Compound | patients with ≥50% decrease in serum prostate specific antigen (PSA) [1] | generation of NY-ESO-1-specific CD4+ and CD8+ T-cell and antibody responses ([2]; 1.4 mg poly-ICLC and Montanide added to OLP, compared to OLP alone or OLP and Montanide, s.c.) | patients showing induction of CD4+ and CD8+ T cell, as well as antibody responses to the peptide ([2]; ovarian carcinoma patients, poly-ICLC with NY-ESO-1 peptide vaccine and Montanide, phase 1) | differential expression of genes versus placebo (healthy human volunteers) | toxicity profile [3]
1 | C[C@]12CC[C@@H]3c4ccc(OC(=O)N(CCCl)CCCl)cc4CC[C@H]3[C@@H]1CC[C@@H]2O [estramustine] | 54% | – | – | – | –
2 | Polyinosinic-Polycytidylic Acid-poly-L-lysine Carboxymethylcellulose [poly-ICLC] | – | markedly enhanced | > 90% | up to 212 genes | relatively benign toxicity profile
